According to patent publication US20260306644A1, “ANTIBODY RECRUITING MOLECULES FOR THE TREATMENT OF CORONAVIRUS DISEASE-19” (priority 2023, published 2026):
Positions of bridges follow the written chain, without caps; N, C: chain ends. Residues, ends and D or L forms follow the SMILES beside them.

What follows are compounds tested against SARS-CoV-2 Spike protein (Severe acute respiratory syndrome coronavirus 2, UniProt P0DTC2) (assay: Ternary binding of SARS-CoV-2 Spike protein (293T cells expressing Spike-GFP, IgG-AF647, flow cytometry)). Conditions: 293T cells expressing Spike-GFP; IgG-AF647 10 μg/ml; repeat values/batches listed separately; read-out: SARS-CoV-2 Ternary binding EC50.
Type: cell-based
Procedure: 293T cells stably expressing SARS-CoV-2 Spike-GFP protein on their surface were incubated with a concentration range of compound for 30 minutes at 37° C.-5% CO2 in Roswell Park Memorial Institute Medium (RPMI)-5% low IgG serum with 10 μg/ml IgG-Alexa Fluor® 647 (AF647). The cells were washed twice using the same medium, resuspended in phosphate-buffered saline (PBS)-1% bovine serum albumin (BSA), and acquired on Attune™ NxT Flow Cytometer. In some embodiments, mean fluorescence intensity of AF647 as well as […] AF647 positive in GFP positive gate are reported as readouts in this assay.

`CC[C@H](C)[C@H](NC(=O)[C@H](CC(C)C)NC(=O)[C@H](CC(=O)O)NC(=O)[C@H](CO)NC(=O)[C@@H](NC(=O)[C@H](CCCNC(=N)N)NC(=O)[C@H](CCSC)NC(=O)[C@H](CO)NC(=O)[C@H](C)NC(=O)[C@H](CCC(=O)O)NC(=O)[C@H](C)NC(=O)[C@H](Cc1c[nH]cn1)NC(=O)CNC(=O)[C@H](CC(C)C)NC(=O)[C@H](CCC(=O)O)NC(=O)[C@H](CC(=O)O)NC(=O)[C@H](CC(C)C)NC(=O)[C@H](CC(C)C)NC(=O)[C@H](CCCNC(=N)N)NC(=O)[C@H](CCSC)NC(=O)[C@@H](NC(=O)[C@H](CCC(=O)O)NC(=O)[C@H](Cc1ccc(O)cc1)NC(=O)[C@@H](NC(=O)[C@H](CCCCN)NC(=O)[C@H](CCC(N)=O)NC(=O)[C@H](CC(C)C)NC(=O)[C@@H](NC(=O)[C@H](Cc1c[nH]c2ccccc12)NC(=O)[C@H](CCC(=O)O)NC(=O)[C@H](CCCCN)NC(=O)[C@H](CC(=O)O)NC(C)=O)[C@@H](C)CC)[C@@H](C)CC)[C@@H](C)CC)C(C)C)C(=O)N[C@@H](Cc1ccc(O)cc1)C(=O)N[C@@H](CCC(=O)O)C(=O)NCCOCCOCCOCCOCCOCCOCCOCCOCCC(=O)NCCOCCOCCOCCOCCOCCOCCOCCOCCC(=O)N[C@@H](CC(=O)O)C(=O)N[C@H]1CSSC[C@@H](C(=O)N[C@H](C(N)=O)[C@@H](C)O)NC(=O)[C@H](Cc2c[nH]c3ccccc23)NC(=O)[C@H](C(C)C)NC(=O)[C@H](CC(C)C)NC(=O)[C@H](CCC(=O)O)NC(=O)CNC(=O)[C@H](CC(C)C)NC(=O)[C@H](Cc2c[nH]cn2)NC(=O)[C@H](Cc2c[nH]c3ccccc23)NC(=O)[C@H](C)NC1=O` [Compound 154] and `CC[C@H](C)[C@H](NC(=O)[C@H](Cc1c[nH]c2ccccc12)NC(=O)[C@H](CCC(=O)O)NC(=O)[C@H](CCCCN)NC(=O)[C@H](CC(=O)O)NC(C)=O)C(=O)N[C@@H](CC(C)C)C(=O)N[C@@H](CCC(N)=O)C(=O)N[C@@H](CCCCN)C(=O)N[C@H](C(=O)N[C@@H](Cc1ccc(O)cc1)C(=O)N[C@@H](CCC(=O)O)C(=O)N[C@H](C(=O)N[C@@H](CCSC)C(=O)N[C@@H](CCCNC(=N)N)C(=O)N[C@@H](CC(C)C)C(=O)N[C@@H](CC(C)C)C(=O)N[C@@H](CC(=O)O)C(=O)N[C@@H](CCC(=O)O)C(=O)N[C@@H](CC(C)C)C(=O)NCC(=O)N[C@@H](Cc1c[nH]cn1)C(=O)N[C@@H](C)C(=O)N[C@@H](CCC(=O)O)C(=O)N[C@@H](C)C(=O)N[C@@H](CO)C(=O)N[C@@H](CCSC)C(=O)N[C@@H](CCCNC(=N)N)C(=O)N[C@H](C(=O)N[C@@H](CO)C(=O)NCCOCCOCCOCCOCCOCCOCCOCCOCCC(=O)NCCOCCOCCOCCOCCOCCOCCOCCOCCC(=O)N[C@@H](CC(=O)O)C(=O)N[C@H]1CSSC[C@@H](C(=O)N[C@H](C(N)=O)[C@@H](C)O)NC(=O)[C@H](Cc2c[nH]c3ccccc23)NC(=O)[C@H](C(C)C)NC(=O)[C@H](CC(C)C)NC(=O)[C@H](CCC(=O)O)NC(=O)CNC(=O)[C@H](CC(C)C)NC(=O)[C@H](Cc2c[nH]cn2)NC(=O)[C@H](Cc2c[nH]c3ccccc23)NC(=O)[C@H](C)NC1=O)C(C)C)[C@@H](C)CC)[C@@H](C)CC` [Compound 153] cannot be ordered by EC50: > 100 nM for the first, > 10 nM for the second.

In the case of `CC[C@H](C)[C@H](NC(C)=O)C(=O)N[C@@H](Cc1ccc(O)cc1)C(=O)N[C@@H](CCC(=O)O)C(=O)N[C@H](C(=O)N[C@@H](CCSC)C(=O)N[C@@H](CCCNC(=N)N)C(=O)N[C@@H](CC(C)C)C(=O)N[C@@H](CC(C)C)C(=O)N[C@@H](CC(=O)O)C(=O)N[C@@H](CCC(=O)O)C(=O)N[C@@H](CC(C)C)C(=O)NCC(=O)N[C@@H](Cc1c[nH]cn1)C(=O)N[C@@H](C)C(=O)N[C@@H](CCC(=O)O)C(=O)N[C@@H](C)C(=O)N[C@@H](CO)C(=O)N[C@@H](CCSC)C(=O)N[C@@H](CCCNC(=N)N)C(=O)N[C@H](C(=O)N[C@@H](CO)C(=O)N[C@@H](CC(=O)O)C(=O)N[C@@H](CC(C)C)C(=O)N[C@H](C(=O)N[C@@H](Cc1ccc(O)cc1)C(=O)N[C@@H](CCC(=O)O)C(=O)N[C@@H](Cc1ccccc1)C(=O)N[C@@H](CCSC)C(=O)N[C@@H](CCCCN)C(=O)N[C@@H](CCCCN)C(=O)NCC(=O)NCCOCCOCCOCCOCCOCCOCCOCCOCCC(=O)NCCOCCOCCOCCOCCOCCOCCOCCOCCC(=O)N[C@@H](CC(=O)O)C(=O)N[C@H]1CSSC[C@@H](C(=O)N[C@H](C(N)=O)[C@@H](C)O)NC(=O)[C@H](Cc2c[nH]c3ccccc23)NC(=O)[C@H](C(C)C)NC(=O)[C@H](CC(C)C)NC(=O)[C@H](CCC(=O)O)NC(=O)CNC(=O)[C@H](CC(C)C)NC(=O)[C@H](Cc2c[nH]cn2)NC(=O)[C@H](Cc2c[nH]c3ccccc23)NC(=O)[C@H](C)NC1=O)[C@@H](C)CC)C(C)C)[C@@H](C)CC` [Compound 156], the EC50 is reported as > 100 nM.

The compounds below were run against T1, SARS-CoV-2 Spike A (wild-type) (Severe acute respiratory syndrome coronavirus 2, UniProt P0DTC2) (assay: MSD ACE2 competition assay (inhibition of Spike binding with ACE2, ECL), A (wild-type)). Conditions: IC50 Wild Type, Wild Type Spike.
T1 construct: purchased Meso Scale Diagnostics, LLC V-PLEX SARS-CoV-2 Panel 13 (ACE2) Kit / Panel 23 (ACE2) Kit

Compared with `CC[C@H](C)[C@H](NC(=O)[C@H](CC(C)C)NC(=O)[C@H](CC(=O)O)NC(=O)[C@H](CO)NC(=O)[C@@H](NC(=O)[C@H](CCCNC(=N)N)NC(=O)[C@H](CCSC)NC(=O)[C@H](CO)NC(=O)[C@H](C)NC(=O)[C@H](CCC(=O)O)NC(=O)[C@H](C)NC(=O)[C@H](Cc1c[nH]cn1)NC(=O)CNC(=O)[C@H](CC(C)C)NC(=O)[C@H](CCC(=O)O)NC(=O)[C@H](CC(=O)O)NC(=O)[C@H](CC(C)C)NC(=O)[C@H](CC(C)C)NC(=O)[C@H](CCCNC(=N)N)NC(=O)[C@H](CCSC)NC(=O)[C@@H](NC(=O)[C@H](CCC(=O)O)NC(=O)[C@H](Cc1ccc(O)cc1)NC(=O)[C@@H](NC(=O)[C@H](CCCCN)NC(=O)[C@H](CCC(N)=O)NC(=O)[C@H](CC(C)C)NC(=O)[C@@H](NC(=O)[C@H](Cc1c[nH]c2ccccc12)NC(=O)[C@H](CCC(=O)O)NC(=O)[C@H](CCCCN)NC(=O)[C@H](CC(=O)O)NC(C)=O)[C@@H](C)CC)[C@@H](C)CC)[C@@H](C)CC)C(C)C)C(=O)N[C@@H](Cc1ccc(O)cc1)C(=O)N[C@@H](CCC(=O)O)C(=O)N[C@@H](Cc1ccccc1)C(=O)N[C@@H](CCSC)C(=O)N[C@@H](CCCCN)C(=O)N[C@@H](CCCCN)C(=O)N[C@@H](CC(=O)O)C(=O)N[C@H]1CSSC[C@@H](C(=O)N[C@H](C(=O)O)[C@@H](C)O)NC(=O)[C@H](Cc2c[nH]c3ccccc23)NC(=O)[C@H](C(C)C)NC(=O)[C@H](CC(C)C)NC(=O)[C@H](CCC(=O)O)NC(=O)CNC(=O)[C@H](CC(C)C)NC(=O)[C@H](Cc2c[nH]cn2)NC(=O)[C@H](Cc2c[nH]c3ccccc23)NC(=O)[C@H](C)NC1=O` [Compound 114], `CC[C@H](C)[C@H](NC(C)=O)C(=O)N[C@@H](CC(C)C)C(=O)N[C@@H](CCC(N)=O)C(=O)N[C@@H](CCCCN)C(=O)N[C@H](C(=O)N[C@@H](Cc1ccc(O)cc1)C(=O)N[C@@H](CCC(=O)O)C(=O)N[C@H](C(=O)N[C@@H](CCSC)C(=O)N[C@@H](CCCNC(=N)N)C(=O)N[C@@H](CC(C)C)C(=O)N[C@@H](CC(C)C)C(=O)N[C@@H](CC(=O)O)C(=O)N[C@@H](CCC(=O)O)C(=O)N[C@@H](CC(C)C)C(=O)NCC(=O)N[C@@H](Cc1c[nH]cn1)C(=O)N[C@@H](C)C(=O)N[C@@H](CCC(=O)O)C(=O)N[C@@H](C)C(=O)N[C@@H](CO)C(=O)N[C@@H](CCSC)C(=O)N[C@@H](CCCNC(=N)N)C(=O)N[C@H](C(=O)N[C@@H](CO)C(=O)N[C@@H](CC(=O)O)C(=O)N[C@@H](CC(C)C)C(=O)N[C@H](C(=O)N[C@@H](Cc1ccc(O)cc1)C(=O)N[C@@H](CCC(=O)O)C(=O)N[C@@H](Cc1ccccc1)C(=O)N[C@@H](CCSC)C(=O)N[C@@H](CCCCN)C(=O)N[C@@H](CCCCN)C(=O)NCC(=O)NCCOCCOCCOCCOCCOCCOCCOCCOCCC(=O)NCCOCCOCCOCCOCCOCCOCCOCCOCCC(=O)N[C@@H](CC(=O)O)C(=O)N[C@H]1CSSC[C@@H](C(=O)N[C@H](C(N)=O)[C@@H](C)O)NC(=O)[C@H](Cc2c[nH]c3ccccc23)NC(=O)[C@H](C(C)C)NC(=O)[C@H](CC(C)C)NC(=O)[C@H](CCC(=O)O)NC(=O)CNC(=O)[C@H](CC(C)C)NC(=O)[C@H](Cc2c[nH]cn2)NC(=O)[C@H](Cc2c[nH]c3ccccc23)NC(=O)[C@H](C)NC1=O)[C@@H](C)CC)C(C)C)[C@@H](C)CC)[C@@H](C)CC` [Compound 155] is 5.3-fold lower in IC50: 40.7 nM for the first, 7.67 nM for the second.

For `CC[C@H](C)[C@H](NC(=O)[C@H](CCCCN)NC(=O)[C@H](CCC(N)=O)NC(C)=O)C(=O)N[C@@H](Cc1ccc(O)cc1)C(=O)N[C@@H](CCC(=O)O)C(=O)N[C@H](C(=O)N[C@@H](CCSC)C(=O)N[C@@H](CCCNC(=N)N)C(=O)N[C@@H](CC(C)C)C(=O)N[C@H]1CSSC[C@@H](C(=O)N[C@@H](CCSC)C(=O)N[C@@H](CCCNC(=N)N)C(=O)N[C@H](C(=O)N[C@@H](CO)C(=O)N[C@@H](CC(=O)O)C(=O)N[C@@H](CC(C)C)C(=O)N[C@H](C(=O)N[C@@H](Cc2ccc(O)cc2)C(=O)N[C@@H](CCC(=O)O)C(=O)N[C@@H](Cc2ccccc2)C(=O)N[C@@H](CCSC)C(=O)N[C@@H](CCCCN)C(=O)N[C@@H](CCCCN)C(=O)NCC(N)=O)[C@@H](C)CC)C(C)C)NC(=O)[C@H](C)NC(=O)[C@H](CCC(=O)O)NC(=O)[C@H](C)NC(=O)[C@H](Cc2c[nH]cn2)NC(=O)CNC(=O)[C@H](CC(C)C)NC(=O)[C@H](CCC(=O)O)NC(=O)[C@H](CC(=O)O)NC1=O)[C@@H](C)CC` [Compound 178] (Ac-QKIYEIMRLCDELGHAEACMRVSDLIYEFMKKG-NH2; disulfide 10-19), the IC50 was > 10000 nM.
